Laboratory results from patent US20240383906A1, “5-SUBSTITUTED PYRIDINE-2(1H)-KETONE COMPOUND AND USE THEREOF” (JIANGSU KANION PHARMACEUTICAL CO., LTD., priority 2021, published 2024).
pIC50: −log10 of the molar value.

Assays:
[1] = system: WNT pathway STF reporter gene; assay: Super-Top-Flash (STF) reporter gene inhibitory activity test; type: cell-based; conditions: HEK293 STF and L wnt3A cells 1:1, 24 hours, Bright-Glo
Method: HEK293 STF and L wnt3A cells were provided by Wuhan Heyan Biomedical Technology Co., Ltd., and Bright Glo was purchased from Promega.
• HEK293 STF and L wnt3A cells were seeded in a white 96-well plate at a ratio of 1:1, with 80 μL of cell suspension per well, each containing 20,000 HEK293 STF cells and 20,000 L wnt3A cells. The cell plate was placed in a carbon dioxide incubator for overnight culture.
The test compounds were 5-fold diluted with a multi-channel pipette to the 8th concentration, i.e., diluted from 400 μM to 5.12 nM, and duplicate experiment was set. 78 μL of culture medium was added to an intermediate plate, and then 2 μL of gradient diluted compound per well was transferred to the intermediate plate according to the corresponding position. After mixing well, the compound was transferred to the cell plate at 20 μL per well. The cell plate was placed in a carbon dioxide incubator and cultured for 24 hours.
100 μL of Promega Bright-Glo reagent was added to each well of the cell plate, and it was incubated at room temperature for 10 minutes to stabilize the luminescent signal. A multimode microplate reader was used for reading.
Using the raw data from the multimode microplate reader, the IC50 value could be obtained through curve fitting. Table 10 provides the data on the inhibitory activity of the compounds of the present disclosure on the Wnt signaling pathway.

Capan-2 cells = assay: Capan-2 cell anti-proliferative activity test; type: cell-based; conditions: Homo sapiens, Capan-2, 120 h; 5 days, CellTiter-Glo
Method: Capan-2 cells were provided by Wuhan Heyan Biomedical Technology Co., Ltd., and CellTiter-Glo was purchased from Promega.
Capan-2 cells were seeded in a white 96-well plate, with 80 μL of cell suspension per well, each containing 5,000 Capan-2 cells. The cell plate was placed in a carbon dioxide incubator for overnight culture.
The test compounds were 3-fold diluted with a multi-channel pipette to the 9th concentration, i.e., diluted from 200 μM to 30 nM, and duplicate experiment was set. 78 μL of culture medium was added to an intermediate plate, and then 2 μL of gradient diluted compound per well was transferred to the intermediate plate according to the corresponding position. After mixing well, the compound was transferred to the cell plate at 20 μL per well. The cell plate was placed in a carbon dioxide incubator and cultured for 5 days. Another cell plate was prepared, and the signal value was read on the day of drug administration to serve as the maximum value (Max value in the equation below) for data analysis. 25 μL of cell viability chemiluminescence detection reagent was added to each well of this cell plate, and it was incubated at room temperature for 10 minutes to stabilize the luminescent signal. A multimode microplate reader was used for reading.
After the cell plate was cultured for 5 days, 25 μL of Promega CellTiter-Glo reagent was added to each well of the cell plate, and it was incubated at room temperature for 10 minutes to stabilize the luminescent signal. A multimode microplate reader was used for reading.
The IC50 value could be obtained through curve fitting, and the results of the inhibitory activity of the compounds of the present disclosure on the proliferation of Capan-2 cells are shown in Table 11.

[2] = Solvent pre-stability of crystal form A (suspension stirring, XRPD); type: physicochemical; conditions: for Crystal form after suspension in solvent (XRPD): stirred overnight at 25° C.
Method: (To ensure maximum suspension of the sample, the amount of compound and solvent was adjusted during the experiment based on the observed phenomena, and even the container used for the experiment was changed if necessary.) After adding a magneton, the suspension sample was placed on a magnetic heating stirrer (25° C.) for testing. After stirring overnight at 25° C., the suspension sample was filtered, and the solid sample on the filter cake was placed in a vacuum drying oven (45° C.) to dry overnight. The crystal form of the solid was obtained by X-ray powder diffraction (XRPD) detection.

[3] = Solid pre-stability test of crystal form A (high temperature, high humidity, light; XRPD); type: physicochemical
Method: The sample placed under high temperature (60° C.) and high humidity (relative humidity 92.5% RH) conditions was sealed with aluminum foil to seal the mouth of the vial, and small holes were made in the aluminum foil to ensure that the sample could fully contact the ambient air, and it was placed in the corresponding constant temperature and humidity box. The light sample (open, not covered with aluminum foil) and the light control sample (the entire sample vial was covered with aluminum foil) were placed in the light box. At each time point, two samples were weighed separately as official test samples. […] The sample vial was wrapped with aluminum foil and small holes were made, and it was also placed in the corresponding constant temperature and humidity box. The sample was taken for testing (XRPD) on days 5 and 10, and the test results were compared with the initial test results on day 0.

[4] = Hygroscopicity of crystal form A (DVS); type: physicochemical
Method: • SMS DVS intrinsic dynamic vapor sorption instrument
Note: ΔW % represents the increase in weight due to moisture absorption of the test sample at 25±1° C. and 80±2% RH.

## Cn1cc(-c2ccc(CNc3ncnn4c(-c5cncc(F)c5)ccc34)cn2)ccc1=O [Compound 1]
[1]
  pIC50: 8.08
Capan-2 cells
  pIC50: 8.22

## Cn1cc(-c2cnc(CNc3nccn4c(-c5cncc(F)c5)cnc34)cn2)ccc1=O [Compound 3]
Capan-2 cells
  pIC50: 7.55

## Cn1cc(-c2ccc(CNc3nccn4c(-c5cncc(F)c5)cnc34)cn2)ccc1=O [Compound 4]
Capan-2 cells
  pIC50: 7.61

## Cn1cc(-c2ccc(CNc3nccc4c3ncn4-c3cncc(F)c3)cn2)ccc1=O [Compound 5]
Capan-2 cells
  pIC50: 7.93

## Cn1cc(-c2cnc(CNc3nccn4c(-c5cc(F)cc(F)c5)cnc34)cn2)ccc1=O [crystal form A of compound 2]
[2]; 2-Methyltetrahydrofuran
  Crystal form after suspension in solvent (XRPD): Crystal form A
[2]; Acetone
  Crystal form after suspension in solvent (XRPD): Crystal form A
[2]; Acetone:water (2:1)
  Crystal form after suspension in solvent (XRPD): Crystal form A
[2]; Acetonitrile
  Crystal form after suspension in solvent (XRPD): Crystal form A
[2]; Dioxane
  Crystal form after suspension in solvent (XRPD): Crystal form A
[2]; Ethanol
  Crystal form after suspension in solvent (XRPD): Crystal form A
[2]; Ethanol:water (1:1)
  Crystal form after suspension in solvent (XRPD): Crystal form A
[2]; Ethyl acetate
  Crystal form after suspension in solvent (XRPD): Crystal form A
[2]; Isopropanol
  Crystal form after suspension in solvent (XRPD): Crystal form A
[2]; Methanol
  Crystal form after suspension in solvent (XRPD): Crystal form A
[2]; Methyl tert-butyl ether
  Crystal form after suspension in solvent (XRPD): Crystal form A
[2]; Tetrahydrofuran
  Crystal form after suspension in solvent (XRPD): Crystal form A
[2]; conclusion
  Stability in different solvents: good stability
[2]; n-Heptane
  Crystal form after suspension in solvent (XRPD): Crystal form A
[3]; 0 days
  Crystal form (XRPD): Crystal form A
[3]; High humidity (relative humidity 92.5%, open), 5 days
  Crystal form (XRPD): Crystal form A
[3]; High humidity (relative humidity 92.5%, open), 10 days
  Crystal form (XRPD): Crystal form A
[3]; High temperature (60° C., open), 5 days
  Crystal form (XRPD): Crystal form A
[3]; High temperature (60° C., open), 10 days
  Crystal form (XRPD): Crystal form A
[3]; Light (total illumination = 1.2 × 10^6 Lux · hr/near ultraviolet = 200 w · hr/m^2, open), 5 days
  Crystal form (XRPD): Crystal form A
[3]; Light (total illumination = 1.2 × 10^6 Lux · hr/near ultraviolet = 200 w · hr/m^2, open), 10 days
  Crystal form (XRPD): Crystal form A
[3]; conclusion
  Stability under high temperature, high humidity, and strong light: good stability
[4]; 25° C. and 80% RH
  Hygroscopicity classification: no or almost no hygroscopicity
[4]; 25° C., 80% RH, compared to initial humidity of 30% (cycle 1 adsorption)
  Weight gain due to moisture absorption: 0.07%
[4]; 25° C., humidity continued to rise to 90%
  Weight decrease of the sample: 0.15%
[4]; 25° C., humidity continued to rise to 95% (cycle 1 adsorption)
  Weight gain due to moisture absorption: 0.01%
[4]; 30-95-0-95% RH/25° C.
  Crystal form before and after the DVS test (XRPD): the crystal form did not change

## Cn1cc(-c2ccc(CNc3nccn4c(-c5cncc(F)c5)cnc34)cc2)ccc1=O [Compound 6]
Capan-2 cells
  pIC50: 7.65

## Cn1cc(-c2ccc(CNc3nccc4c3ncn4-c3ccccc3)cn2)ccc1=O [Compound 7]
Capan-2 cells
  pIC50: 8.23
